55 compounds from US20250304537A1 (Repare Therapeutics Inc., priority 2022, published 2025) can be followed below.

pIC50: −log10 of the molar value.

Sequence of recombinant human Myt1 (full length PKMYT1) (Q99640 whole entry): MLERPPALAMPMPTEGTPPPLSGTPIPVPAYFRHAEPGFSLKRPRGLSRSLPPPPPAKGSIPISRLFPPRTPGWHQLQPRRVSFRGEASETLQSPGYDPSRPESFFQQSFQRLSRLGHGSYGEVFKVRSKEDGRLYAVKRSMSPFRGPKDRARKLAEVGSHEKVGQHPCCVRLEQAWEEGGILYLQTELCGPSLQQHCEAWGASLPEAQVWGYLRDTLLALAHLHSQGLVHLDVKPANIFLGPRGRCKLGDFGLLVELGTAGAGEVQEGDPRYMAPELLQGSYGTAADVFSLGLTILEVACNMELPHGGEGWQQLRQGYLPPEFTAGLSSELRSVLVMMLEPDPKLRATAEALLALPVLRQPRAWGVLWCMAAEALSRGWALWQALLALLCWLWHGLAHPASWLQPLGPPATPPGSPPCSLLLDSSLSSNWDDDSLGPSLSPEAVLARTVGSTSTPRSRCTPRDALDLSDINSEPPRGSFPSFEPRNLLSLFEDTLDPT

This assay has as its target recombinant human Myt1 (full length PKMYT1) (Homo sapiens (Human), UniProt Q99640). As to the kind of experiment: Recombinant human Myt1 kinase assay (ADP-Glo). Type of assay: biochemical. As to conditions: 10 μM ATP. The protocol:
Detection of Myt1 kinase activity utilized a recombinant human Myt1 kinase assay measuring the hydrolysis of ATP using a commercially available ADP-Glo Assay (ADP-Glo™ Kinase Assay from Promega, 10 000 assays, #V9102). Briefly, 5 μL recombinant human Myt1 (full length PKMYT1 recombinant human protein expressed in insect cells from Thermo Fisher #A33387; ˜80% purity) was prepared in reaction buffer (70 mM HEPES, 3 mM MgCl2, 3 mM MnCl2, 50 μg/ml PEG 20000, 3 μM Na-orthovanadate, 1.2 mM DTT) and added to 384 well white polystyrene, flat bottom well, non-treated, microplate (Corning #3572). After this, 5 μL of compounds (diluted in reaction buffer to 0.5% DMSO) was added to the microplate and the plate was spun briefly and incubated at 22° C. for 15 minutes. Ultra-Pure Adenosine Triphosphate (ATP) solution (ADP-Glo kit from Promega) was diluted in reaction buffer and 5 μL was added to the microplate, spun down briefly and incubated for 60 minutes at 30° C. The final Myt1 enzyme concentration was 18 nM and the final ATP concentration was 10 μM. After the 60-minute incubation, 15 μL of ADP-Glo reagent was added and the plate was spun briefly and sealed and incubated in the dark for 40 minutes at 22° C. Following this, 30 μL of kinase detection reagent was added per well and the plate was spun briefly, sealed and incubated for 45-60 minutes at 22° C. in the dark. Luminescence was read using the Envision (250 ms integration). The IC50 and the % max inhibition were calculated for each inhibitor compound tested.
Turning to `Cc1ccc2[nH]ncc2c1-c1cc(-c2ccnc(OCCc3ncccn3)n2)nc(C(N)=O)c1N` (atropisomer, axis not shown) [Compound 330], the pIC50 was 7.06.

Turning to `Cc1ccc2[nH]ncc2c1-c1cc(-c2cccc(OC[C@H](N)C(C)C)n2)nc(C(N)=O)c1N` (atropisomer, axis not shown) [Compound 345], the pIC50 was 5.99.

Regarding `Cc1ccc2[nH]ncc2c1-c1cc(-c2ccnc(O[C@@H](C)c3ncccn3)n2)nc(C(N)=O)c1N` (atropisomer, axis not shown) [Compound 357], the pIC50 is 8.30.

On to `Cc1ccc2[nH]ncc2c1-c1cc(-c2ccnc(O[C@H](C)c3ncccn3)n2)nc(C(N)=O)c1N` (atropisomer, axis not shown) [Compound 358], for which the pIC50 was 7.16.

`Cc1ccc2[nH]ncc2c1-c1cc(-c2ccnc(N[C@@H](CO)c3ccccc3)n2)nc(C(N)=O)c1N` (atropisomer, axis not shown) [Compound 362]: the pIC50 is 8.70.

As to `CO[C@@H](COc1cccc(-c2cc(-c3c(C)ccc4[nH]ncc34)c(N)c(C(N)=O)n2)n1)C1CC1` (atropisomer, axis not shown) [Compound 363], the pIC50 is 8.40.

In the case of `CO[C@H](COc1cccc(-c2cc(-c3c(C)ccc4[nH]ncc34)c(N)c(C(N)=O)n2)n1)C1CC1` (atropisomer, axis not shown) [Compound 364], the pIC50 is 8.10.

In the case of `Cc1ccc2[nH]ncc2c1-c1cc(-c2ccnc(N[C@H](CO)Cc3ccccc3)n2)nc(C(N)=O)c1N` (atropisomer, axis not shown) [Compound 370], the pIC50 was 6.06.

Take `Cc1ccc2[nH]ncc2c1-c1cc(-c2ccnc(N[C@H]3c4ccccc4C[C@@H]3O)n2)nc(C(N)=O)c1N` (atropisomer, axis not shown) [Compound 372]: the pIC50 is less than 5.70.

Consider `Cc1ccc2[nH]ncc2c1-c1cc(-c2ccnc(N[C@H]3c4ccccc4C[C@H]3O)n2)nc(C(N)=O)c1N` (atropisomer, axis not shown) [Compound 376], for which the pIC50 was 7.82.

With `Cc1ccc2[nH]ncc2c1-c1cc(-c2cccc(OCC3(N)CC3)n2)nc(C(N)=O)c1N` (atropisomer, axis not shown) [Compound 382], the pIC50 was 8.52.

As for `Cc1ccc2[nH]ncc2c1-c1cc(-c2ccnc(N[C@@H](CO)Cc3ccccc3)n2)nc(C(N)=O)c1N` (atropisomer, axis not shown) [Compound 383], the pIC50 is 8.70.

As for `Cc1ccc2[nH]ncc2c1-c1cc(-c2ccnc(N[C@@H]3c4ccccc4C[C@@H]3O)n2)nc(C(N)=O)c1N` (atropisomer, axis not shown) [Compound 384], the negative-log IC50 (pIC50) is 8.40.

For `Cc1ccc2[nH]ncc2c1-c1cc(-c2cccc(OC[C@H]3CCCN3)n2)nc(C(N)=O)c1N` (atropisomer, axis not shown) [Compound 387], the pIC50 is 6.19.

For the compound `Cc1ccc2[nH]ncc2c1-c1cc(-c2cccc(OC[C@H]3CCCO3)n2)nc(C(N)=O)c1N` (atropisomer, axis not shown) [Compound 388], the pIC50 is 6.19.

Regarding `Cc1ccc2[nH]ncc2c1-c1cc(-c2ccnc(N3Cc4ccccc4C[C@H]3CO)n2)nc(C(N)=O)c1N` (atropisomer, axis not shown) [Compound 392], the pIC50 was 6.34.

For `Cc1ccc2[nH]ncc2c1-c1cc(-c2ccnc(NCC3(O)COC3)n2)nc(C(N)=O)c1N` (atropisomer, axis not shown) [Compound 394], the pIC50 was 7.01.

In the case of `Cc1ccc(O)cc1-c1cc2cccnc2c(C(N)=O)c1N` [Compound 1, 7-amino-6-(5-hydroxy-2-methylphenyl)quinoline-8-carboxamide], the negative logarithm of the IC50 (pIC50) was less than 4.30.

In the case of `Cc1ccc(O)cc1-c1nc(-c2cccc(F)n2)nc(C(N)=O)c1N` [Compound 5], the pIC50 is 7.60.

Turning to `Cc1ccc(O)cc1-c1nc(-c2cccc(C(N)=O)c2)nc(C(N)=O)c1N` [Compound 8], the pIC50 is 7.60.

With `Cc1cnc(-c2nc(C(N)=O)c(N)c(-c3cc(O)ccc3C)n2)s1` [Compound 9], the pIC50 was 7.36.

Regarding `Cc1ccc(O)cc1-c1c(N)c(C(N)=O)nc2ccccc12` [Compound 10, 3-amino-4-(5-hydroxy-2-methylphenyl)quinoline-2-carboxamide], the pIC50 is 6.69.

Consider `Cc1cc(-c2nc(C(N)=O)c(N)c(-c3cc(O)ccc3C)n2)cc(C)n1` [Compound 11], for which the pIC50 was 7.27.

Take `Cc1ccc(O)cc1-c1nc(C(N)=O)c(N)c(-c2cc(O)ccc2C)n1` [Compound 12]: the pIC50 was 6.61.

Take `Cc1ccc(-c2nc(C(N)=O)c(N)c(-c3cc(O)ccc3C)n2)cc1` [Compound 20]: the pIC50 was 6.98.

With `Cc1ccc(O)cc1-c1nc(-c2cccnc2)nc(C(N)=O)c1N` [Compound 21], the pIC50 was 6.69.

With `Cc1ccc(O)cc1-c1nc(-c2cc(F)cc(F)c2)nc(C(N)=O)c1N` [Compound 22], the pIC50 was 7.74.

Consider `Cc1ccc(O)cc1-c1nc(-c2ccc(C#N)cc2)nc(C(N)=O)c1N` [Compound 23], for which the pIC50 was 7.29.

As to `Cc1ccc(O)cc1-c1nc(-c2ccncc2)nc(C(N)=O)c1N` [Compound 24], the pIC50 is 7.74.

As for `COc1cc(-c2nc(C(N)=O)c(N)c(-c3cc(O)ccc3C)n2)ccn1` [Compound 25], the pIC50 is 7.82.

With `Cc1ccc(O)cc1-c1nc(-c2ccc(F)c(Cl)c2)nc(C(N)=O)c1N` [Compound 28], the pIC50 is 7.35.

On to `Cc1cccc(-c2nc(C(N)=O)c(N)c(-c3cc(O)ccc3C)n2)c1` [Compound 30], for which the pIC50 was 7.13.

Consider `Cc1ccccc1-c1nc(C(N)=O)c(N)c(-c2cc(O)ccc2C)n1` [Compound 31], for which the pIC50 is 6.47.

Turning to `Cc1ccc(O)cc1-c1nc(-c2cc(F)cc(C(F)(F)F)c2)nc(C(N)=O)c1N` [Compound 32], the pIC50 was 6.76.

For `Cc1ccc(O)cc1-c1nc(-c2ccc(N)nc2)nc(C(N)=O)c1N` [Compound 33], the pIC50 is 7.28.

As for `Cc1ccc(O)cc1-c1nc(-c2cnn(C)c2)nc(C(N)=O)c1N` [Compound 34], the pIC50 is 7.09.

Turning to `Cc1ccc(O)cc1-c1nc(-c2ccn(C)n2)nc(C(N)=O)c1N` [Compound 35], the pIC50 is 6.78.

Consider `Cc1ccc(O)cc1-c1nc(-c2ccn(C)c(=O)c2)nc(C(N)=O)c1N` [Compound 36], for which the pIC50 is 7.04.

In the case of `Cc1ccc(O)cc1-c1nc(-c2ccc(N3CCOCC3)cc2)nc(C(N)=O)c1N` [Compound 37], the pIC50 was 7.38.

Regarding `Cc1ccc(O)cc1-c1nc(C2CCC(F)(F)CC2)nc(C(N)=O)c1N` [Compound 41, 5-amino-2-(4,4-difluorocyclohexyl)-6-(5-hydroxy-2-methylphenyl)pyrimidine-4-carboxamide], the pIC50 was 6.08.

Turning to `Cc1ccc(O)c(C)c1-c1cc(-c2cc3ccccc3n2C)nc(C(N)=O)c1N` [Compound 46], the pIC50 is 7.21.

Regarding `Cc1ccc(O)c(C)c1-c1cc(C(=O)O)nc(C(N)=O)c1N` [Compound 53, 5-amino-6-carbamoyl-4-(3-hydroxy-2,6-dimethylphenyl)picolinic acid], the pIC50 is 5.74.

Turning to `Cc1ccc(O)cc1-c1c(Cl)c(C(N)=O)nc2ccccc12` [Compound 73, 3-chloro-4-(5-hydroxy-2-methylphenyl)quinoline-2-carboxamide], the pIC50 was less than 7.30.

`Cc1ccc(O)cc1-c1cc(C(N)=O)nc2ccccc12` [Compound 74, 4-(5-hydroxy-2-methylphenyl)quinoline-2-carboxamide]: the pIC50 is 5.54.

`Cc1ccc2[nH]ncc2c1-c1nc(-c2ccccc2)nc(C(N)=O)c1Cl` [Compound 75, 5-chloro-6-(5-methyl-1H-indazol-4-yl)-2-phenylpyrimidine-4-carboxamide]: the pIC50 is less than 5.70.

As to `Cc1ccc2[nH]ncc2c1-c1cc(C(N)=O)nc(-c2ccccc2)n1` [Compound 76, 6-(5-methyl-1H-indazol-4-yl)-2-phenylpyrimidine-4-carboxamide], the pIC50 was less than 5.70.

As to `Cc1ccc2[nH]ncc2c1-c1cc(-c2ccccn2)nc(C(N)=O)c1N` [Compound 96], the pIC50 is 6.41.

Take `Cc1ccc2[nH]ncc2c1-c1cc(-c2cccnc2)nc(C(N)=O)c1N` [Compound 97]: the pIC50 is 7.27.

In the case of `Cc1ccc2[nH]ncc2c1-c1cc(-c2cncs2)nc(C(N)=O)c1N` [Compound 98], the pIC50 was 5.71.

As for `Cc1ccc2[nH]ncc2c1-c1nc(-c2cccnc2)nc(C(N)=O)c1N` [Compound 99], the pIC50 is 7.23.

`Cc1ccc2[nH]ncc2c1-c1nc(-c2ccc(N3CCOCC3)cc2)nc(C(N)=O)c1N` [Compound 103]: the pIC50 is 7.03.

In the case of `Cc1ccc2[nH]ncc2c1-c1nc(-c2ccc(C(F)(F)F)cc2)nc(C(N)=O)c1N` [Compound 104], the pIC50 is 6.50.

Regarding `NC(=O)c1nc(-c2ccnnc2)cc(-c2c(Cl)ccc3[nH]ncc23)c1N` [Compound 106], the pIC50 is 7.55.

Consider `Cc1ccc2[nH]ncc2c1-c1nc(-c2cccc(Cl)c2)nc(C(N)=O)c1N` [Compound 111], for which the pIC50 is 7.36.

Consider `Cc1ccc2[nH]ncc2c1-c1nc(-c2cccc(C(F)(F)F)c2)nc(C(N)=O)c1N` [Compound 112], for which the negative-log IC50 (pIC50) is 7.00.
